# ChEMBL document CHEMBL1133519, “Novel design of nonpeptide AVP V(2) receptor agonists: structural requirements for an agonist having 1-(4-aminobenzoyl)-2,3,4, 5-tetrahydro-1H-1-benzazepine as a template” (J Med Chem, 2000)
# Biological target: not listed separately
# Assay: Binding affinity towards AVP receptor
row,Ki [nM],SMILES
1,0.79,Cc1ccccc1C(=O)Nc1ccc(C(=O)N2CCCC(O)c3cc(Cl)ccc32)c(C)c1 (stereo not drawn) [TOLVAPTAN]

# Biological target: T1, Vasopressin V2 receptor (Rattus norvegicus, UniProt Q00788)
# T1 sequence (Q00788 whole entry): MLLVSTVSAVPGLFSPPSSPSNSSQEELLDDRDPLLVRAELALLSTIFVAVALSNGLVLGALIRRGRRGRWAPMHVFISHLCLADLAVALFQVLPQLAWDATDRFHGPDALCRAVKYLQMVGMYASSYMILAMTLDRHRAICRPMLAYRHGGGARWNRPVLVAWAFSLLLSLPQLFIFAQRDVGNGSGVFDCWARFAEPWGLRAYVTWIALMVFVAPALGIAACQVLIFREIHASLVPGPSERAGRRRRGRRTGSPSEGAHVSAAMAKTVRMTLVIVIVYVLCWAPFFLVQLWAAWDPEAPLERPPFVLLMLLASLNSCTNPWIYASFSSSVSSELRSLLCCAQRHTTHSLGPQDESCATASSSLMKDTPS
# Assay: Binding affinity towards rat Vasopressin V2 receptor
row,IC50 [nM],SMILES
1,150,O=C(c1ccc(N2CCCC2)cc1Cl)N1CCCCc2ccccc21

# Biological target: T2, Vasopressin V2 receptor (Homo sapiens, UniProt P30518)
# T2 sequence (P30518 whole entry): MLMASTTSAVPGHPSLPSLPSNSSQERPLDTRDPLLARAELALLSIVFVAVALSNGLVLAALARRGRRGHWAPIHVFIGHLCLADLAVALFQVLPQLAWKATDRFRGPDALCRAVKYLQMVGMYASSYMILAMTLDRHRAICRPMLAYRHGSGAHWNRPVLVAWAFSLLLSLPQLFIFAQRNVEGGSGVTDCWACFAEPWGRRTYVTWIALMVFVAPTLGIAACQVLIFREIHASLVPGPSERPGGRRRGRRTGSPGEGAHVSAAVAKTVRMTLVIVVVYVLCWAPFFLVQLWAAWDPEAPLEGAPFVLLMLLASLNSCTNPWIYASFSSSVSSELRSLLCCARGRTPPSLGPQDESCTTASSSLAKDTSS
# Assay: Inhibition of [3H]AVP binding to human Vasopressin V2 receptor expressed in HeLa cells
# Assay type: cell-based
row,IC50 [nM],SMILES
1,18,CCCNc1ccc(C(=O)N2CCCCc3ccccc32)c(Cl)c1
2,320,O=C(c1ccc(-n2cccc2)cc1)N1CCCCc2ccccc21
3,9,O=C(c1ccc(N2CCCC2)cc1Cl)N1CCCCc2ccccc21
4,1000,O=C(c1ccc(N2CCCC2)cc1)N1CCCCc2ccccc21
5,18,CN(C)c1ccc(C(=O)N2CCCCc3ccccc32)c(Cl)c1
6,4.1,Cc1cc(N)ccc1C(=O)N1CCCCc2cc(Cl)ccc21
7,16,O=C(c1ccc(N2CCCC2)cc1Cl)N1CCCCc2cc(Cl)ccc21
8,13,Cc1ccn(-c2ccc(C(=O)N3CCCCc4ccccc43)c(Cl)c2)n1
9,5.9,C=CCNc1ccc(C(=O)N2CCCCc3ccccc32)c(Cl)c1
10,5,CCNc1ccc(C(=O)N2CCCCc3cc(Cl)ccc32)c(Cl)c1
11,19,CCN(CC)c1ccc(C(=O)N2CCCCc3ccccc32)c(Cl)c1
12,13,CN(C)c1ccc(C(=O)N2CCCCc3cc(Cl)ccc32)c(Cl)c1
13,180,Nc1ccc(C(=O)N2CCCCc3ccccc32)cc1
14,120,O=C(c1ccc(N2CCCCC2)cc1Cl)N1CCCCc2ccccc21
15,34,CCNc1ccc(C(=O)N2CCCCc3ccccc32)c(Cl)c1
16,31,CCCCCNc1ccc(C(=O)N2CCCCc3ccccc32)c(Cl)c1
17,22,CCCCNc1ccc(C(=O)N2CCCCc3ccccc32)c(Cl)c1
18,35,CNc1ccc(C(=O)N2CCCCc3ccccc32)c(Cl)c1
19,7.5,O=C(c1ccc(-n2cccc2)cc1Cl)N1CCCCc2ccccc21
20,210,O=C(c1ccc(N2CCCC2)cc1)N1CCCCc2cc(Cl)ccc21
21,51,CC1CCN(c2ccc(C(=O)N3CCCCc4ccccc43)c(Cl)c2)C1 (stereo not drawn)
22,8.8,O=C(c1ccc(-n2cccn2)cc1Cl)N1CCCCc2ccccc21

# Biological target: T1, Vasopressin V2 receptor
# Assay: Binding affinity towards rat Vasopressin V2 receptor in vitro
row,IC50 [nM],SMILES
1,38,Cc1ccccc1OCC(=O)Nc1ccc(C(=O)N2CCCCc3cc(Cl)ccc32)c(C)c1

# Biological target: Vasopressin V1a receptor (Rattus norvegicus, UniProt P30560)
# Sequence (P30560 whole entry): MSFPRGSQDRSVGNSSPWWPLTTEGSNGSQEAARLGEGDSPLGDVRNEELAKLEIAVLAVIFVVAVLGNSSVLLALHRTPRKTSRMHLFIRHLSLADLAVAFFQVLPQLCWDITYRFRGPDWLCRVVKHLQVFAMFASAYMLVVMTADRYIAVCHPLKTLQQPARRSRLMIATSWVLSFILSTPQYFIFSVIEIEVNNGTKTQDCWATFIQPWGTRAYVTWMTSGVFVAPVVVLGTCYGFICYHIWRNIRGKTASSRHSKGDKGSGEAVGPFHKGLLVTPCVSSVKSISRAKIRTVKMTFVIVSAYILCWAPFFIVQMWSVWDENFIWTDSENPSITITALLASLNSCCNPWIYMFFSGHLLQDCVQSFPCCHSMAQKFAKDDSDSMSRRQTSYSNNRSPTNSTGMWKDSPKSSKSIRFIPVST
# Assay: Binding affinity towards rat Vasopressin V1a receptor […]
row,IC50 [nM],SMILES
1,5100,Cc1ccccc1OCC(=O)Nc1ccc(C(=O)N2CCCCc3cc(Cl)ccc32)c(C)c1

# Biological target: Vasopressin V1a receptor (Homo sapiens, UniProt P37288)
# Sequence (P37288 whole entry): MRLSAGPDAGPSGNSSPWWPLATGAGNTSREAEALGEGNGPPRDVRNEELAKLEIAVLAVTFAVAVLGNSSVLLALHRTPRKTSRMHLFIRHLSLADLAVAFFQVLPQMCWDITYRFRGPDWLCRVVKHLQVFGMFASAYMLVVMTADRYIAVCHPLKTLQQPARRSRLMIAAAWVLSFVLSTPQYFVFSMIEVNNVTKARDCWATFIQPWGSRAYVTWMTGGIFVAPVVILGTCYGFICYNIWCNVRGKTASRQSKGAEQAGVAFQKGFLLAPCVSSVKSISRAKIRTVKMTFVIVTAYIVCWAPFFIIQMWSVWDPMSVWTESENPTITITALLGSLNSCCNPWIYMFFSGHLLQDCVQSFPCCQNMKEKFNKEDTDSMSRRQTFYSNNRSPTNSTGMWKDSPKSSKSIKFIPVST
# Assay: Binding affinity towards Vasopressin V1a receptor in human liver
row,SMILES,Ki [nM]
1,CC(=O)NCCCOc1ccc(C(=O)N2CCC(N3C(=O)CCc4ccccc43)CC2)cc1,14000

# Biological target: T2, Vasopressin V2 receptor
# Assay: Concentration which inhibit [3H]AVP binding to human Vasopressin V2 receptor coded HeLa cells by 50%
# Assay type: cell-based
row,IC50 [nM],SMILES
1,0.95,Cc1ccccc1OCC(=O)Nc1ccc(C(=O)N2CCCCc3cc(Cl)ccc32)c(C)c1
